Data reported in PMC2994747, “Molecular Characterization of c-Abl/c-Src Kinase Inhibitors Targeted against Murine Tumour Progenitor Cells that Express Stem Cell Markers” (PLoS ONE, 2010).

Tests used:
c-Abl = molecular target: T1, c-Abl (Homo sapiens, UniProt P00519); assay: Abl filter-binding kinase assay (Abtide, [γ-32P]ATP); type: biochemical; details: isolated Abl; calculated from ID50, ATP-competitive; E0 0.005, S0 0.012 µM
T1 construct: His tag; purchased Upstate (Lake Placid, NY, USA)
How it was run: (§1)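 Radiometric filter read-out with recombinant His-tagged human enzymes. Src used 0.125 pmol enzyme and 0.160 pmol [γ-32P]ATP with kit peptide; Abl used Abtide, […], 0.012 µM ATP, pH 7.5 Tris, 30 °C for 10 min. Ki derived from ID50 via ATP-competitive equation accounting for enzyme concentration.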

c-Src = molecular target: T2, c-Src (Homo sapiens, UniProt P12931); assay: Src filter-binding kinase assay (Src Assay Kit); type: biochemical; details: isolated Src; calculated from ID50, ATP-competitive; E0 0.005, S0 0.012 µM
T2 construct: His tag; purchased Upstate (Lake Placid, NY, USA)
How it was run: as §1

A2C12 = assay: Western blot, semi-quantitative protein expression; type: cell-based, mouse
How it was run: (§2)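 Semi-quantitative western blot on cell lysates, 25 µg protein per SDS-PAGE lane, probed for c-Abl, Actin, Cdc2, EPS15, FAK, c-Fos, p38, p53, STAT5, c-Src/pSrc Y416, EGFR/pEGFR Y992/Y1045, hnRNP-K and p73. HRP-conjugated secondary detection; band intensities expressed relative to vehicle-treated control cells.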

BetaD5 = assay: Western blot, semi-quantitative protein expression; type: cell-based, mouse
How it was run: as §2

A549 = assay: Western blot, semi-quantitative protein expression; type: cell-based, human
Description: (§3) For the Western Blot analysis, cells were rinsed and lysed as previously described. An amount of 25 µg protein was used for SDS-PAGE. Antibodies for c-Abl (sc-131), Actin (sc-1616), Cdc2-p34 (sc-8395), EPS15 (sc-1840), FAK (sc-558), c-Fos (sc-52), p38 (sc-7972), p53 (sc-6243) and STAT5 (sc-835x) were obtained from Santa Cruz (Santa Cruz Biotechnology, Heidelberg, Germany), while c-Src (2109) and phospho-Src Y416 (2101) were purchased from Cell Signaling (Cell Signaling Technology, Frankfurt a. M., Germany). The EGFR (06-847), phospho-EGFR Y992 (07-821) and phospho-EGFR Y1045 (04-284) stem from Upstate (Upstate, Schwalbach, Germany) and the hnRNP-K (A300-676A) from Bethyl Labs (Bethyl Laboratories, Montgomery, Texas, USA). Finally p73 (IMG-246) was supplied by Imgenex (Imgenex, Hamburg, Germany). Depending on the primary antibody the secondary antibodies were either horseradish peroxidase-conjugated anti-mouse (AP 160P), anti-rabbit (AP 132P) or anti-sheep (AP 147P) (Chemicon, Schwalbach, Germany).
(§4) Semi-quantitative analysis were carried out with Kodak 1D Image Analysis Software in reference to the vehicle treated control cells (see supplementary table S7).

CaCo2 = assay: Western blot, semi-quantitative protein expression; type: cell-based, human
Description: as §3, §4

T2 sequence (P12931 whole entry): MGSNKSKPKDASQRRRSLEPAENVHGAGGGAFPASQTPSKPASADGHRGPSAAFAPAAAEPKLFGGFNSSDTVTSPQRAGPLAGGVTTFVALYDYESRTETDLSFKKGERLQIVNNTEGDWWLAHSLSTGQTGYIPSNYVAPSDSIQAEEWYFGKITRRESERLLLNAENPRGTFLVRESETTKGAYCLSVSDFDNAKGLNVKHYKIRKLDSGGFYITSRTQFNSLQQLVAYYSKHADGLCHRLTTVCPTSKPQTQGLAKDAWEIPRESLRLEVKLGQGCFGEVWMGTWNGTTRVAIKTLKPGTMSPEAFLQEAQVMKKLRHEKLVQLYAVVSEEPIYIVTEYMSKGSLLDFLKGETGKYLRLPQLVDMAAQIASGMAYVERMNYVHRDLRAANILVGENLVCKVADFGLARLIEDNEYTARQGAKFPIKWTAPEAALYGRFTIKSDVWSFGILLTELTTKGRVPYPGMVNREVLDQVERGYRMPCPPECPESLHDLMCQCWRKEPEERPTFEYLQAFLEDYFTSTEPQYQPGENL
T1 sequence (P00519 whole entry): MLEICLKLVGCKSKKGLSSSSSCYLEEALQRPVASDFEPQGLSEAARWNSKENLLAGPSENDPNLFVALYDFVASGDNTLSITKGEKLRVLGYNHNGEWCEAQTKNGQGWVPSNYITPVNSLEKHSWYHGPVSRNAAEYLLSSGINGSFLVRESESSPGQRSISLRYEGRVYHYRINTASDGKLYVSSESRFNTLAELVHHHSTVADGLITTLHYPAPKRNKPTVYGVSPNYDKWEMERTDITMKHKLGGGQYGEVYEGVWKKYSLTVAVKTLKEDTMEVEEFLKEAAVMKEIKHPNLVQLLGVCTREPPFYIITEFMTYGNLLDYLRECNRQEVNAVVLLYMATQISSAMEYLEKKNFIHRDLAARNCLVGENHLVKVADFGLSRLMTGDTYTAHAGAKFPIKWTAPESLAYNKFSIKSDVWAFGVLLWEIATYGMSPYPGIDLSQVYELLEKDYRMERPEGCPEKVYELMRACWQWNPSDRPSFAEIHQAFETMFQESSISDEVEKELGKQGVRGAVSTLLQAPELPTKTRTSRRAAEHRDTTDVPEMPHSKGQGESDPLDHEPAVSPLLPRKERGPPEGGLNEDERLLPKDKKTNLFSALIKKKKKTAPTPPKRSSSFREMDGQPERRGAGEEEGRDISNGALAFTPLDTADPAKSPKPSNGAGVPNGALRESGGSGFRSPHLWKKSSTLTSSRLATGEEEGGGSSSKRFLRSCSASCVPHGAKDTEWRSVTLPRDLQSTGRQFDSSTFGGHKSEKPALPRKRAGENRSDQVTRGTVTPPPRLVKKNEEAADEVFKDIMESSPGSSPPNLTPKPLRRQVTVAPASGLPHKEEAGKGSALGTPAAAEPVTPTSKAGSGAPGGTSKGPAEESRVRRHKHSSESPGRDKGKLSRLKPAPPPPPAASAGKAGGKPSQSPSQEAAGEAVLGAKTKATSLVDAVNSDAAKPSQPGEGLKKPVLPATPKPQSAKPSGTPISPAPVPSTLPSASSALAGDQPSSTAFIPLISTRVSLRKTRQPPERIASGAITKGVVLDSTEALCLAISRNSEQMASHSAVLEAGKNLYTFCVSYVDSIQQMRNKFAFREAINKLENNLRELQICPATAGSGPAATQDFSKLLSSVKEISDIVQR

## Fc1ccccc1CNc1ncnc2c1cnn2CC(Cl)c1ccc(Br)cc1 (stereo not shown) [Si162]
c-Abl
  Ki: 444 nM
c-Src
  Ki: 42 nM
A2C12
  Actin protein expression: 99
  EGFR Y992-p protein expression: 16
  EGFR Y1045-p protein expression: 0.417
  EGFR protein expression: 23
  EPS15 protein expression: 104
  FAK protein expression: 52
  STAT5 protein expression: 34
  c-Abl protein expression: 50
  c-Fos protein expression: 60
  c-Src protein expression: 121
  hnRNP-K protein expression: 60
  p38 protein expression: 20
  p53 protein expression: 131
  p73 protein expression: 40
BetaD5
  Actin protein expression: 91
  EGFR Y992-p protein expression: 145
  EGFR Y1045-p protein expression: 733
  EGFR protein expression: 92
  EPS15 protein expression: 554
  FAK protein expression: 124
  STAT5 protein expression: 182
  c-Abl protein expression: 24
  c-Fos protein expression: 122
  c-Src Y416-p protein expression: 36
  c-Src protein expression: 110
  hnRNP-K protein expression: 20
  p38 protein expression: 39
  p53 protein expression: 443
BetaD5; IC50 concentration, 96 h
  c-Src autophosphorylation (Tyr416), in words: inhibition of c-Src autophosphorylation
A549
  Actin protein expression: 62
  Cdc2-p34 protein expression: 5.47
  EGFR Y1045-p protein expression: 7
  EGFR protein expression: 0.418
  EPS15 protein expression: 10
  FAK protein expression: 46
  STAT5 protein expression: 17
  c-Abl protein expression: 8.56
  c-Fos protein expression: 10
  c-Src protein expression: 49
  hnRNP-K protein expression: 39
  p38 protein expression: 19
  p53 protein expression: 48
  p73 protein expression: 10
A549; IC50 concentration, 96 h
  c-Src autophosphorylation (Tyr416), in words: inhibition of c-Src autophosphorylation
CaCo2
  Actin protein expression: 116
  Cdc2-p34 protein expression: 43
  EGFR Y992-p protein expression: 178
  EGFR Y1045-p protein expression: 131
  EPS15 protein expression: 42
  FAK protein expression: 52
  STAT5 protein expression: 69
  c-Abl protein expression: 114
  c-Fos protein expression: 35
  c-Src Y416-p protein expression: 213
  c-Src protein expression: 88
  hnRNP-K protein expression: 62
  p38 protein expression: 29
  p53 protein expression: 55
  p73 protein expression: 43
